Experimental data: ChEMBL document CHEMBL5579794, “Improved synthesis and evaluation of preclinical pharmacodynamic parameters of a new monocyclic β-lactam DPI-2016” (Bioorg Med Chem Lett, 2024)

Columns and labels:
[1] = Stability in rat plasma at 1 uM measured upto 120 mins by LC-MS/MS analysis; type: ADME, cell-free; settings: 2 h
[2] = Stability in human plasma at 1 uM measured upto 120 mins by LC-MS/MS analysis; type: ADME, cell-free; settings: 2 h
[3] = Stability in dog plasma at 1 uM measured upto 120 mins by LC-MS/MS analysis; type: ADME, cell-free, Canis lupus familiaris; settings: 2 h
[4] = Stability in monkey plasma at 1 uM measured upto 120 mins by LC-MS/MS analysis; type: ADME, cell-free, Macaca mulatta; settings: rhesus monkey, 2 h
[5] = Stability in mouse plasma at 1 uM measured upto 120 mins by LC-MS/MS analysis; type: ADME, cell-free; settings: 2 h
[6] = Plasma protein binding in rat at 1 uM incubated for 6 hrs by LC-MS/MS analysis; type: ADME, cell-free; settings: read-out: PPB (converted)
[7] = Plasma protein binding in human at 1 uM incubated for 6 hrs by LC-MS/MS analysis; type: ADME, cell-free; settings: read-out: PPB (converted)
[8] = Stability in mouse liver microsomes at 0.2 mg/ml measured up to 60 mins in presence of NADPH by LC-MS/MS analysis; type: ADME, Microsome; settings: 1 h
[9] = Stability in rat liver microsomes at 0.2 mg/ml measured up to 60 mins in presence of NADPH by LC-MS/MS analysis; type: ADME, Microsome; settings: 1 h
[10] = Stability in monkey liver microsomes at 0.2 mg/ml measured up to 60 mins in presence of NADPH by LC-MS/MS analysis; type: ADME, Macaca mulatta, Microsome; settings: rhesus monkey, 1 h
[11] = Stability in human liver microsomes at 0.2 mg/ml measured up to 60 mins in presence of NADPH by LC-MS/MS analysis; type: ADME, Microsome; settings: 1 h
[12] = Stability in dog liver microsomes at 0.2 mg/ml measured up to 60 mins in presence of NADPH by LC-MS/MS analysis; type: ADME, Canis lupus familiaris, Microsome; settings: 1 h

CC(C)[N+](C)(CCOC(=O)C1c2ccccc2Oc2ccccc21)C(C)C [PROPANTHELINE]
Stability [1]: Unstable | Stability [2]: Unstable | Stability [3]: Unstable | Stability [4]: Unstable | Stability [5]: Unstable

CC(=O)Nc1ccc(O)cc1 [ACETAMINOPHEN]
fraction unbound at 6 h, 1 µM [6]: 0.526 | fraction unbound at 6 h, 1 µM [7]: 0.741

Cc1ncc2n1-c1ccc(Cl)cc1C(c1ccccc1F)=NC2 [MIDAZOLAM]
Stability [8]: Unstable | Stability [9]: Unstable | Stability [10]: Unstable | Stability [11]: Unstable | Stability [12]: Unstable
